Measured values from ChEMBL document CHEMBL1152872, “Discovery of N-{[1-(propylsulfonyl)-4-pyridin-2-ylpiperidin-4-yl]methyl}benzamides as novel, selective and potent GlyT1 inhibitors” (Bioorg Med Chem Lett, 2009).

Key:
[1] = biological target: T1, Sodium- and chloride-dependent taurine transporter (Homo sapiens, UniProt P31641); test: Inhibition of taurine transporter; assay type: single protein
T1 sequence (P31641 whole entry): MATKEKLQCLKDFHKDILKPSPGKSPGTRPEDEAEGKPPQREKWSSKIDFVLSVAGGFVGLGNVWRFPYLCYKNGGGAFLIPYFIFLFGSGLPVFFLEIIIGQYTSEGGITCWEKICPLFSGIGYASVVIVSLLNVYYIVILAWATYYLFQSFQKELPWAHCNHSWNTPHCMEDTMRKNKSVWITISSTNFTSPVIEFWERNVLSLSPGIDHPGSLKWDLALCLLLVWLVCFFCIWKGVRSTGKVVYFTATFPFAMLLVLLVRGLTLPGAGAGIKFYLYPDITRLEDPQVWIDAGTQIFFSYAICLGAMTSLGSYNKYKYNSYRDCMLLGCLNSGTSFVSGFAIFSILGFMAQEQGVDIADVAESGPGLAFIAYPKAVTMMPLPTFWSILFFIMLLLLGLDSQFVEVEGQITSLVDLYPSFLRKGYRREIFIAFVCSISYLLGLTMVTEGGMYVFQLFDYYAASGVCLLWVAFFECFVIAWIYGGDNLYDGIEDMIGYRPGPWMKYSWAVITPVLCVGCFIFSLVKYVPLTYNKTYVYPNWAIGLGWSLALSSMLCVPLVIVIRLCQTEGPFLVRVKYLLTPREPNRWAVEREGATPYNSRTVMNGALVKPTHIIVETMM

[2] = biological target: T2, Sodium- and chloride-dependent glycine transporter 2 (Homo sapiens, UniProt Q9Y345); test: Inhibition of glycine transporter 2
T2 sequence (Q9Y345 whole entry): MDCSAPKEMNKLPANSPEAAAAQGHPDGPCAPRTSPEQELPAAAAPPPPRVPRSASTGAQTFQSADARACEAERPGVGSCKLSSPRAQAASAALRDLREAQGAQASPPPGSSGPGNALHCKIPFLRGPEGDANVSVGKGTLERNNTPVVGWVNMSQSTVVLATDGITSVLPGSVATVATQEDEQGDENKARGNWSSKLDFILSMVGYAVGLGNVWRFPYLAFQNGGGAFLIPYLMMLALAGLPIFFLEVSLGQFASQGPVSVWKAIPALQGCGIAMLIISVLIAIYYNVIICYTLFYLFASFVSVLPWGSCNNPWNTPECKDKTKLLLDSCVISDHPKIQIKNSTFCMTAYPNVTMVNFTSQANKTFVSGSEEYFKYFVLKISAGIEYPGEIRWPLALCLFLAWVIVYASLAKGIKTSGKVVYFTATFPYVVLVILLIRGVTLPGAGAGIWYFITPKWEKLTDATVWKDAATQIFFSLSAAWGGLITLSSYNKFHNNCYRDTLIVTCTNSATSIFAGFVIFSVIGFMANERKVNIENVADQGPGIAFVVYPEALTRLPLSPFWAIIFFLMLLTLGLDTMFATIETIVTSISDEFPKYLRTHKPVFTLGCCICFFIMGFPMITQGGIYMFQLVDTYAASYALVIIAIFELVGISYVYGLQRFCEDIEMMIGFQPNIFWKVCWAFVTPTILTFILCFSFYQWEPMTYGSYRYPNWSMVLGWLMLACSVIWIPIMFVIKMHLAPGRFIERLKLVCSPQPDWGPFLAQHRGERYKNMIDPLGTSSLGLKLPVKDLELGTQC

[3] = biological target: T3, Sodium- and chloride-dependent glycine transporter 1 (Homo sapiens, UniProt P48067); test: Inhibition of human glycine transporter 1
T3 sequence (P48067 whole entry): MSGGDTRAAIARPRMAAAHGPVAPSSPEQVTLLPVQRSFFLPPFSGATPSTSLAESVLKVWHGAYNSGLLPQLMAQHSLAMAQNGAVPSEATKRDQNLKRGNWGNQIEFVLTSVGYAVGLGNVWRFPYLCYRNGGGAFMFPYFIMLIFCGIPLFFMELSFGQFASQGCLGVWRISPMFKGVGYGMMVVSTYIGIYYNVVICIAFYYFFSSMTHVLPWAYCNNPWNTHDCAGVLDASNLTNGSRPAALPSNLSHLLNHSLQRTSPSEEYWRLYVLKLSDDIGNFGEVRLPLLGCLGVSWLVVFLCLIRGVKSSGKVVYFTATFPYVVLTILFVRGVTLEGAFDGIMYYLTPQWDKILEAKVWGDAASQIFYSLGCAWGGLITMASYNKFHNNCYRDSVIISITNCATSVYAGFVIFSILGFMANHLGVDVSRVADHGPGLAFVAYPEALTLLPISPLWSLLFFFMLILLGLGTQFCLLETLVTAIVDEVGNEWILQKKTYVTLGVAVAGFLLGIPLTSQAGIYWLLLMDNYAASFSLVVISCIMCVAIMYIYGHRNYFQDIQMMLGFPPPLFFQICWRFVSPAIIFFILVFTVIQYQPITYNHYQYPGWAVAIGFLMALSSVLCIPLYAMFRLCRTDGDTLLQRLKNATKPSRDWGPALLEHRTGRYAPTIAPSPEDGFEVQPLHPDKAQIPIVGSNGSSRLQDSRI

[4] = Solubility in water; assay type: physicochemical

| SMILES | IC50 [1] [nM] | IC50 [2] [nM] | IC50 [3] [nM] | solubility [4] [µg/mL] |
| --- | --- | --- | --- | --- |
| CCCS(=O)(=O)N1CCC(CNC(=O)c2ccccc2Cl)(c2ccccn2)CC1 | > 30000 | > 30000 | 11.9 | – |
| CCCS(=O)(=O)N1CCC(CNC(=O)c2c(F)ccc(F)c2Cl)(c2ccccn2)CC1 | > 30000 | > 30000 | 5.7 | – |
| CCCS(=O)(=O)N1CCC(CNC(=O)c2ccc(Cl)cc2Cl)(c2cccc(C)n2)CC1 | > 30000 | > 30000 | 2.5 | – |
| CCCS(=O)(=O)N1CCC(CNC(=O)c2ccc(Cl)cc2Cl)(C2CCCCN2C)CC1 (stereo not given) | – | – | 9.5 | – |
| CCCS(=O)(=O)N1CCC(CNC(=O)c2ccc(Cl)cc2)(c2ccccn2)CC1 | > 30000 | > 30000 | 103 | – |
| CCCS(=O)(=O)N1CCC(CNC(=O)c2cccc(Cl)c2)(c2ccccn2)CC1 | > 30000 | > 30000 | 517 | – |
| CCCS(=O)(=O)N1CCC(CNC(=O)c2ccc(Cl)c(Cl)c2)(c2ccccn2)CC1 | > 30000 | > 30000 | 131 | – |
| CCCS(=O)(=O)N1CCC(CNC(=O)c2cccc(C)c2)(c2ccccn2)CC1 | > 30000 | > 30000 | 833 | – |
| CCCS(=O)(=O)N1CCC(CNC(=O)c2ccccc2)(c2cccc(OC)n2)CC1 | > 30000 | > 30000 | 48.3 | – |
| CCCS(=O)(=O)N1CCC(CNC(=O)c2ccccc2Cl)(c2cccc(OC)n2)CC1 | > 30000 | > 30000 | 6.9 | – |
| CCCS(=O)(=O)N1CCC(CNC(=O)c2ccccc2C(F)(F)F)(c2ccccn2)CC1 | > 30000 | > 30000 | 31.3 | – |
| CCCS(=O)(=O)N1CCC(CNC(=O)c2ccccc2Cl)(c2cc(C)ccn2)CC1 | > 30000 | > 30000 | 38.3 | – |
| CCCS(=O)(=O)N1CCC(CNC(=O)c2ccc(Cl)cc2Cl)(c2cc(C)ccn2)CC1 | > 30000 | > 30000 | 3.5 | – |
| CCCS(=O)(=O)N1CCC(CNC(=O)c2ccccc2OC(F)(F)F)(c2ccccn2)CC1 | > 30000 | > 30000 | 19.4 | – |
| CCCS(=O)(=O)N1CCC(c2ccccn2)([C@H](C)NC(=O)c2cc(F)cc(F)c2Cl)CC1 | > 30000 | > 30000 | 4 | – |
| CCCS(=O)(=O)N1CCC(CNC(=O)c2ccccc2)(c2cc(C)ccn2)CC1 | > 30000 | > 30000 | 129 | – |
| CCCS(=O)(=O)N1CCC(CNC(=O)c2ccc(Cl)cc2Cl)(c2ccccn2)CC1.Cl | – | – | – | 850 |
| CCCS(=O)(=O)N1CCC(CNC(=O)c2ccccc2Cl)(c2cccc(C)n2)CC1 | > 30000 | > 30000 | 3 | – |
| CCCS(=O)(=O)N1CCC(CNC(=O)c2ccccc2)(C2CCCCN2C)CC1 (stereo not given) | – | – | 3310 | – |
| CCCS(=O)(=O)N1CCC(CNC(=O)c2ccc(Cl)cc2Cl)(c2ccccn2)CC1 | > 30000 | > 30000 | 4.4 | – |
| CCCS(=O)(=O)N1CCC(CNC(=O)c2ccccc2)(c2ccccn2)CC1 | > 30000 | > 30000 | 107 | – |
| CCCS(=O)(=O)N1CCC(CNC(=O)c2ccccc2C)(c2ccccn2)CC1 | > 30000 | > 30000 | 19.5 | – |
